Assay results published in patent US5869456A, “Use of glutathione diesters” (priority 1995, dated 1999).
Read-outs that look alike come from different tables or passages of the source.

Key:
mice [1] = conditions: earlier evidence / earlier patents; cited from earlier work
[2] = tested on: GSH diester α-esterase activity, hamster plasma
[3] = tested on: Hamsters (liver, kidney, blood plasma); experiment: Thiol levels in hamsters treated with GSH esters; format: in vivo, Syrian hamster
Description: Plasma Samples: 190 μl 50 mM DTPA, total 70 μ1 sample plus 3.33% SSA, 17.5 μl Tris, 10 μl of mBBr; after 20 min in the dark, 7.5 μl glacial acetic acid. Reduced Plasma Samples: 170μ 50 mM DTPA, 20 μl 16 mM DTT in 50 mM DTPA, remainder as above; the samples were agitated at room temperature for 20 min. After reduction, mBBr was added and the derivatization proceeds as above.
Other Animal Tissues. 385 μl 50 mM DTPA, 140 μl sample. 20 μl mBBr, 40 μl Tris; 20 minutes in the dark, 15 μl glacial acetic acid. Standards for all sample types were prepared using identical derivatization procedures.
Recovery of Tissues from Syrian Hamsters. Animals were anesthetized by i.p. administration of xylazine and ketamine, decapitated, and exsanguinated. Blood was mixed with 50 μl EDTA (0.5M, pH 7). Plasma was recovered by centrifugation; one-half vol. 10% SSA/0.5 mM DTPA was added. Liver: one lobe was removed, rinsed with H2 O, blotted, weighed, and homogenized in 5% SSA (0.5 Mm DTPA) (5 vol/g tissue). Kidney: one kidney was removed and decapsulated and then processed as with liver.
BSO (6 mmol/kg) was given I.P. fasted animals 2 hours prior to giving GSH, GSH-ME, or GSH-DE (5 mmol/kg); values were determined 1 hour later. […] Each value represents determinations ±S.D. on 3-4 animals.

mice [4] = conditions: given to mice, present studies
[5] = tested on: Human Peripheral Blood Mononuclear Cells; conditions: 6 ml whole blood + 3 ml 60 mM thiol, 30 min, 37° C.; PBM
Description: (§1) T Cell and PBM Lysates: 120 μl 4 mM DTPA, total 360 μl sample/4.31% SSA (containing 0.5 mM DTPA), 100 μl Tris, 5μ mBBr; 20 min. in the dark, 15 μl glacial acetic acid.
(§2) HPLC Analysis of Cellular Thiols. Samples were chromatographed on an Altex Ultrasphere ODS reverse phase column (5μ; 4.6 mm×25 cm), using one of three gradients: (1) Buffer A: 12.8% MeOH, 0.25% acetic acid, 87.75% H2 O, pH 3.9. (2) Buffer B: 90.0% MeOH, 0.25% acetic acid, 9.75% H2 O (no pH Adjustment). (3) Gradient 1: Initial, 100% A, linear gradient to 50% B at 25 min., linear gradient to 100% B at 35 min., wash with 100% B to 39.5 min.; step to 100% A at 40 min.; equilibration with 100% A to 48 min. Gradient 2: Initial, 100% A, linear gradient to 75% B at 25 min., remainder identical to Gradient 1. Gradient 3: Initial, 100% A, linear gradient to 65% A, 35% B at 25 minutes, remainder identical to gradient 1. Flow rates were 1 ml/min.
6 mls. whole blood (see Table 1) was mixed with 3 ml of 60 mM GSH, GSH-ME or GSH-DE at pH 7. After 30 min incubation at 37° C., PBM were isolated by Ficoll-Hypaque density gradient centrifugation. Cells were washed with 14 ml PBS (2-3) and lysed with 4.31% SSA/0.5 mM DTPA (400 μl). After centrifugation, the supernatants were derivatized for HPLC analysis.

[6] = tested on: GSH diester α-esterase activity, sheep plasma
[7] = tested on: GSH diester α-esterase activity, rabbit plasma
[8] = tested on: GSH diester α-esterase activity, human blood plasma
Human Erythrocytes [9] = conditions: whole blood + one-half volume 120 mM thiol, 30 minutes, 37° C.
Description: (§3) Derivatization of Cell Thiols for HPLC Analysis. Derivatization mixtures are as follows: Erythrocyte Lysates: 155 μl 50 mM DTPA (pH 7), 110 μl 3.33% SSA, total 180 μl cell supernatant plus "RBC Mix", 10 μl 0.1M mBBr (in CH3 CN), 100 μl of 2M Tris·HCl (pH 9 at room temperature). The samples were placed in the dark for 20-30 minutes at room temperature; the reaction was quenched with 90 μl of glacial acetic acid. Reduced Erythocyte Lysates. 155 μl mM DTT in 50 mM DTPA (pH 7), SSA, sample, and "RBC Mix" as above Tris was added and the samples were agitated at room temperature for 25 min. 20 μl Tris and 10 μl mBBr were added; the derivatization proceeds as above.
as §2
Whole blood (see Table 1) was mixed with one-half volume of 120 mM GSH, GSH-ME, or GSH-DE at pH 7. The samples were incubated for 30 minutes at 37° C. and then centrifuged. After removal of plasma and buffy coat, the erythrocytes were washed and processed as described in Table 1.

Human Erythrocytes [10] = conditions: for Thiol Levels, Total / Thiol Levels, thiol found GSH / Thiol Levels, thiol found GSH-DE / Thiol Levels, thiol found GSH-ME: erythrocyte suspension, 80 mM thiol added (one-third vol), 37° C.
Description: Analysis of Erythrocyte Thiol by DTNB. Cell supernatant (40 μl) was added to 1 ml of 6 mM DTNB (in 143 mM phosphate buffer, pH 7.5, containing 6.3 mM EDTA). The change in absorbance at 412 nm after 1 min was converted to a value for total thiol using a GSH standard curve. The GSH standard were prepared in a 1:2:2 mixture of PBS: 0.435M acetic acid: 10% SSA (containing 2 mM EDTA) ("RBC Mix").
as §3, §2
Whole blood was collected with EDTA or DTPA (0.5M, pH 7) as anticoagulant (0.4 ml/8-12 ml blood). Plasma and buffy coat were removed after centrifugation and the erythrocytes washed 3 times with 1-2 vol PBS/5 mM DTPA or EDTA. Packed erythrocytes were suspended in one-half vol. PBS. To each suspension was one-third vol. GSH, GSH-ME or GSH-DE (80 mM, pH 7). After incubation at 37° C. for the indicated times, aliquots were removed, washed (3-4×) with PBS/EDTA/DTPA, lysed with one volume 0.435M acetic acid, protein-precipitated with one volume 10% SSA/2 mM DTPA, and centrifuged to remove cell debris. Supernatants were derivatized for HPLC analysis as described in Materials and Methods.

hamsters = conditions: given to hamsters, present studies
[11] = tested on: esterase activity, mouse blood plasma
[12] = tested on: Human Peripheral Blood Mononuclear Cells; conditions: for Thiol Levels, Total / Thiol Levels, thiol found GSH / Thiol Levels, thiol found GSH-DE / Thiol Levels, thiol found GSH-ME: isolated PBM, 0.3 ml 80 mM thiol to 0.9 ml cells, 37° C.
Description: as §1, §2
PBM were isolated from whole blood (see Tables 1 and 3) washed with PBS, and re-suspended in PBS. To 0.9 ml cell suspension (5-8×10^6 cells) was added 0.3 ml of 80 mM GSH, GSH-ME or GSH-DE at pH 7. After incubation at 37° C. for the indicated times, the cells were recovered by centrifugation, washed with 14 ml PBS (2×), and lysed by addition of 4.31% of SSA/0.5 mM DTPA and 2-3 freeze-thaw cycles. After centrifugation, supernatants were derivatized for HPLC analysis.

[13] = tested on: GSH diester α-esterase activity, guinea pig plasma
[14] = tested on: esterase activity, rat blood plasma

COC(=O)CNC(=O)C(CS)NC(=O)CCC(N)C(=O)OC (centres unmarked) [GSH dimethyl ester]
toxicity (mice [1]): may be toxic

CCOC(=O)CNC(=O)[C@H](CS)NC(=O)CC[C@H](N)C(=O)OCC [GSH-DE, glutathione diethyl ester]
splitting of GSH-DE to GSH-ME in plasma (GSH diester α-esterase activity) [2]: not split to GSH-ME in plasma | splitting of GSH-DE to GSH-ME in plasma (GSH diester α-esterase activity) ([2]; listed as GSH diethyl ester): lacks detectable GSH diester α-esterase activity | raising GSH levels in liver ([3]; hamster, comparison in words (Table 6)): more effective than GSH-ME | Blood plasma levels of GSH ([3]; hamsters, 5 mmol/kg after BSO, 1 hour later): not affected | toxicity (mice [4]): toxicity was not observed | Thiol Levels Found, GSH [5]: 4.24 nmol/10^6 cells | Thiol Levels Found, GSH-DE [5]: 0.501 nmol/10^6 cells | Thiol Levels Found, GSH-ME [5]: 10.5 nmol/10^6 cells | Thiol Levels Found, Total [5]: 15.2 nmol/10^6 cells | GSH diester α-esterase activity in plasma [6]: also lack this esterase | GSH diester α-esterase activity in plasma [7]: also lack this esterase | splitting of GSH-DE to GSH-ME in plasma (GSH diester α-esterase activity) [8]: not split to GSH-ME in plasma | splitting of GSH-DE to GSH-ME in plasma (GSH diester α-esterase activity) ([8]; listed as GSH diethyl ester): does not have detectable GSH diester α-esterase activity | Thiol Levels Found, GSH (Human Erythrocytes [9]): 2.24 ± 0.45 mM | Thiol Levels Found, GSH-DE (Human Erythrocytes [9]): 8.61 ± 0.31 mM | Thiol Levels Found, GSH-ME (Human Erythrocytes [9]): 6.26 ± 0.50 mM | Thiol Levels Found, Total (Human Erythrocytes [9]): 17.1 ± 1.24 mM | Thiol Levels, Total (Human Erythrocytes [10]; 7 min): 9.99 ± 2.10 mM | Thiol Levels, thiol found GSH (Human Erythrocytes [10]; 7 min): 1.74 ± 0.22 mM | Thiol Levels, thiol found GSH-DE (Human Erythrocytes [10]; 7 min): 4.19 ± 1.47 mM | Thiol Levels, thiol found GSH-ME (Human Erythrocytes [10]; 7 min): 4.01 ± 0.41 mM | Thiol Levels, Total (Human Erythrocytes [10]; 45 min): 14.5 ± 2.0 mM | Thiol Levels, thiol found GSH (Human Erythrocytes [10]; 45 min): 1.77 ± 0.22 mM | Thiol Levels, thiol found GSH-DE (Human Erythrocytes [10]; 45 min): 3.61 ± 1.29 mM | Thiol Levels, thiol found GSH-ME (Human Erythrocytes [10]; 45 min): 9.15 ± 0.49 mM | Thiol Levels, Total (Human Erythrocytes [10]; 90 min): 20.1 ± 2.8 mM | Thiol Levels, thiol found GSH (Human Erythrocytes [10]; 90 min): 2.02 ± 0.30 mM | Thiol Levels, thiol found GSH-DE (Human Erythrocytes [10]; 90 min): 3.51 ± 1.28 mM | Thiol Levels, thiol found GSH-ME (Human Erythrocytes [10]; 90 min): 14.6 ± 1.2 mM | total RBC thiol levels (Human Erythrocytes [10]; summary of Table 1): about 20 mM | toxicity (hamsters): toxicity was not observed | conversion of GSH diethyl ester to GSH mono (glycyl) ester in blood plasma [11]: split rapidly to GSH-ME | conversion of GSH diethyl ester to GSH mono (glycyl) ester in blood plasma ([11]; listed as GSH diethyl ester): rapidly converted to GSH mono (glycyl) ester | total thiols in human PBM ([12]; in 90 min, text summary of Table 4): 33 mM | Thiol Levels, Total ([12]; 7 min, donor A): 12.1 ± 1.3 nmol/10^6 cells | Thiol Levels, thiol found GSH ([12]; 7 min, donor A): 3.64 ± 0.32 nmol/10^6 cells | Thiol Levels, thiol found GSH-DE ([12]; 7 min, donor A): 0.65 ± 0.016 nmol/10^6 cells | Thiol Levels, thiol found GSH-ME ([12]; 7 min, donor A): 8.34 ± 0.95 nmol/10^6 cells | Thiol Levels, Total ([12]; 45 min, donor B): 17.2 ± 1.4 nmol/10^6 cells | Thiol Levels, thiol found GSH ([12]; 45 min, donor B): 2.82 ± 0.25 nmol/10^6 cells | Thiol Levels, thiol found GSH-DE ([12]; 45 min, donor B): 0.320 ± 0.101 nmol/10^6 cells | Thiol Levels, thiol found GSH-ME ([12]; 45 min, donor B): 14.1 ± 1.0 nmol/10^6 cells | Thiol Levels, Total ([12]; 90 min, donor A): 33.2 ± 6.3 nmol/10^6 cells | Thiol Levels, thiol found GSH ([12]; 90 min, donor A): 5.58 ± 1.05 nmol/10^6 cells | Thiol Levels, thiol found GSH-DE ([12]; 90 min, donor A): 0.750 ± 0.141 nmol/10^6 cells | Thiol Levels, thiol found GSH-ME ([12]; 90 min, donor A): 26.9 ± 5.1 nmol/10^6 cells | GSH diester α-esterase activity in plasma [13]: also lack this esterase | conversion of GSH diethyl ester to GSH mono (glycyl) ester in blood plasma [14]: split rapidly to GSH-ME | conversion of GSH diethyl ester to GSH mono (glycyl) ester in blood plasma ([14]; listed as GSH diethyl ester): rapidly converted to GSH mono (glycyl) ester
